Measured values: patent publication US8106099B2, “Combination of phenylcarboxamides with blockers of the IKr channel and their use for the treatment of atrial arrhythmias” (Sanofi-Aventis Deutschland GmbH, priority 2003, dated 2012)
“Also recorded” adds a separate entry of the source.

How the values were obtained:
[1] = system: goats in persistent atrial fibrillation; experiment: Investigation of cardioversion and AFCL in chronically fibrillating goats (two goats); type: in vivo; conditions: for effect on the AFCL by the substance on its own (in words) / cardioversion / termination of persistent fibrillation by the substance on its own: persistent AF goat model; for cardioversion / termination of persistent fibrillation by the substance on its own: example 1 at 0.1-10 mg/kg/h in the goat of table 4
Protocol: Investigation of Cardioversion in Chronically Fibrillating Goats
Experiments were carried out on two goats which were in persistent atrial fibrillation of more than 45 days.
The measurements of the AFCL and of the cardioversion were carried out successively.

[2] = system: normal and remodeled atria of goats; experiment: Investigation of the refractory period (AERP) in normal goats and in goats with remodeled atria; type: in vivo; conditions: for effect on the AERP in remodeled atrium compared with normal atrium: remodeled versus normal atrium
Protocol: Investigation of the Refractory Period in Normal Goats and in Goats with Remodeled Atria
This electrical remodeling, which reflects the situation in the patient, was achieved by repetitive atrial stimulations as published by Wijffels et al. (Atrial fibrillation begets atrial fibrillation. A study in awake chronical instrumented goats. Circulation 1995, 92, 1954-68).
In the monotherapy, 0.12 mg of ibutilide per kg of bodyweight was administered over the length of time of 60 minutes (0.002 mg per kg per minute).
A similar infusion scheme was carried out on 5 further animals with dofetilide instead of ibutilide. […] In the monotherapy, 0.12 mg of dofetilide per kg of bodyweight was administered over the length of time of 60 minutes (0.002 mg per kg per minute).

SMILES | effect on the AFCL by the substance on its own (in words) [1] | cardioversion / termination of persistent fibrillation by the substance on its own [1] | prolongation of the AERP ([2]; remodeled atria, n=5 goats, dofetilide study) [ms] | effect on the AERP in remodeled atrium compared with normal atrium [2] | doses of the compound of example 1 that brought about cardioversion / termination of the atrial fibrillation ([1]; goat of table 3, monotherapy, or combination with ibutilide 2 mg/kg) | dose of the Kv1.5 blocker of example 1 leading to cardioversion / termination of persistent fibrillation ([1]; summary in description, combination with very low doses (for example 10 μg/kg) of the IKr channel blocker) [mg/kg] | prolongation of the AERP ([2]; normal atria, n=5 goats, dofetilide study) [ms] | prolongation of the AERP ([2]; normal atria, n=7 goats, ibutilide study, relative to control before administration) [ms] | effective atrial refractory period (AERP), mean value ± SD ([2]; remodeled atria (induced AF 1 to 4 days), 7 goats, cycle length 400 ms, same infusion scheme with ibutilide) [ms] | effect on the AFCL by the substance on its own (in words) ([1]; listed as ibutilide) | prolongation of the AERP ([2]; remodeled atria, n=7 goats, ibutilide study) [ms]
CN(CCOc1ccc(NS(C)(=O)=O)cc1)CCc1ccc(NS(C)(=O)=O)cc1 [Dofetilide] | slight prolongation | a cardioversion does not occur; also recorded: not to a termination of the fibrillation | 7 | markedly lower |  |  |  |  |  |  | 
COc1ccc(CC(=O)NCc2ccccc2-c2ccccc2C(=O)NCCc2cccnc2)cc1 [Example 1, 2′-{[2-(4-Methoxyphenyl)acetylamino]methyl}biphenyl-2-carboxylic acid (2-pyridin-3-ylethyl)amide] | dose-dependent increase | not to cardioversion |  | markedly greater | 10 mg per kg of bodyweight per ho | 10 | 51 | 47 | 160 ± 16 |  | 
CCCCCCCN(CC)CCCC(O)c1ccc(NS(C)(=O)=O)cc1.O=C(O)/C=C/C(=O)O (centres unmarked) [Ibutilide] | very small increase | not to a termination of the fibrillation |  | markedly lower |  |  |  |  |  | slight prolongation | 5
